Reference: the supplement of paper PMC9663587

Assays:
[1] = compound: CC(=O)c1c(C)c2cnc(Nc3ccc(N4CCN(CCOCCOCCOCCNC(=O)COc5cccc6c5C(=O)N(C5CCC(=O)NC5=O)C6=O)CC4)cn3)nc2n(C2CCCC2)c1=O [BSJ-03-123]; experiment: increase in dead-cell fraction, 72 h; higher = more death;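 also: breast cancer cell lines in 384-well plates, stained with Hoechst plus LIVE/DEAD far red dye and imaged, cells above an LDR intensity threshold counted dead, Hoechst-negative corpses included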
[2] = compound: CC(=O)c1c(C)c2cnc(Nc3ccc(N4CCNCC4)cn3)nc2n(C2CCCC2)c1=O; experiment: as above
[3] = compound: CCN1CCN(Cc2ccc(Nc3ncc(F)c(-c4cc(F)c5nc(C)n(C(C)C)c5c4)n3)nc2)CC1; experiment: as above
[4] = compound: CCOc1cc2ncc(C#N)c(Nc3ccc(OCc4ccccn4)c(Cl)c3)c2cc1NC(=O)/C=C/CN(C)C [Neratinib/HKI272]; experiment: as above
[5] = compound: CCc1cnn2c(NCc3ccc[n+]([O-])c3)cc(N3CCCC[C@H]3CCO)nc12; experiment: as above
[6] = compound: CN(C)C(=O)c1cc2cnc(Nc3ccc(N4CCNCC4)cn3)nc2n1C1CCCC1 [LEE011/Ribociclib]; experiment: as above
[7] = compound: T1, CN(C)C/C=C/C(=O)Nc1ccc(C(=O)Nc2cccc(Nc3ncc(Cl)c(-c4c[nH]c5ccccc45)n3)c2)cc1 [THZ1]; experiment: as above
[8] = compound: T2, CN1CC[C@H](c2c(O)cc(O)c3c(=O)cc(-c4ccccc4Cl)oc23)[C@H](O)C1 [Flavopiridol]; experiment: as above
[9] = compound: CC(=O)c1c(C)c2cnc(Nc3ccc(N4CCNCC4)cn3)nc2n(C2CCCC2)c1=O; experiment: GR value, 72 h; higher = faster growth (1 = untreated, <0 = killing);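 also: breast cancer and non-malignant breast epithelial lines, nine half-log doses, viable cells counted by Hoechst and LIVE/DEAD dye imaging versus time-zero plates and DMSO controls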
[10] = compound: CN(C)C/C=C/C(=O)Nc1ccc(C(=O)N2CCC[C@@H](Nc3ncc(Cl)c(-c4c[nH]c5ccccc45)n3)C2)cc1 [THZ531]; experiment: as above
[11] = compound: T1, THZ1; experiment: as above
[12] = compound: T2, Flavopiridol; experiment: as above

MDAMB468
increase in dead-cell fraction ([1]; 0.001 µM): -0.0103
increase in dead-cell fraction ([1]; 0.003162 µM): 0.0028
increase in dead-cell fraction ([1]; 0.01 µM): 0.0034
increase in dead-cell fraction ([1]; 0.03162 µM): 0.0062
increase in dead-cell fraction ([1]; 0.1 µM): 0.0131
increase in dead-cell fraction ([1]; 0.3162 µM): 0.0169
increase in dead-cell fraction ([1]; 1 µM): 0.0332
increase in dead-cell fraction ([1]; 3.162 µM): 0.0309
increase in dead-cell fraction ([1]; 10 µM): 0.128
increase in dead-cell fraction ([2]; 0.0003162 µM): 0.0165
increase in dead-cell fraction ([2]; 0.001 µM): 0.0114
increase in dead-cell fraction ([2]; 0.003162 µM): 0.0024
increase in dead-cell fraction ([2]; 0.01 µM): -0.0003
increase in dead-cell fraction ([2]; 0.03162 µM): 0.0031
increase in dead-cell fraction ([2]; 0.1 µM): -0.006
increase in dead-cell fraction ([2]; 0.3162 µM): -0.0071
increase in dead-cell fraction ([2]; 1 µM): -0.001
increase in dead-cell fraction ([2]; 3.162 µM): -0.0077
increase in dead-cell fraction ([3]; 0.001 µM): 0.0107
increase in dead-cell fraction ([3]; 0.003162 µM): 0.0019
increase in dead-cell fraction ([3]; 0.01 µM): -0.0006
increase in dead-cell fraction ([3]; 0.03162 µM): -0.0012
increase in dead-cell fraction ([3]; 0.1 µM): -0.0016
increase in dead-cell fraction ([3]; 0.3162 µM): -0.0021
increase in dead-cell fraction ([3]; 1 µM): 0.019
increase in dead-cell fraction ([3]; 3.162 µM): 0.101
increase in dead-cell fraction ([3]; 10 µM): 0.545
increase in dead-cell fraction ([4]; 0.0003162 µM): 0.0075
increase in dead-cell fraction ([4]; 0.001 µM): 0.0021
increase in dead-cell fraction ([4]; 0.003162 µM): 0.0111
increase in dead-cell fraction ([4]; 0.01 µM): 0.0196
increase in dead-cell fraction ([4]; 0.03162 µM): 0.0337
increase in dead-cell fraction ([4]; 0.1 µM): 0.0953
increase in dead-cell fraction ([4]; 0.3162 µM): 0.205
increase in dead-cell fraction ([4]; 1 µM): 0.381
increase in dead-cell fraction ([4]; 3.162 µM): 0.6
increase in dead-cell fraction ([5]; 0.0001 µM): 0.0037
increase in dead-cell fraction ([5]; 0.0003162 µM): -0.0009
increase in dead-cell fraction ([5]; 0.001 µM): -0.0038
increase in dead-cell fraction ([5]; 0.003162 µM): 0.0016
increase in dead-cell fraction ([5]; 0.01 µM): 0.0237
increase in dead-cell fraction ([5]; 0.03162 µM): 0.245
increase in dead-cell fraction ([5]; 0.1 µM): 0.396
increase in dead-cell fraction ([5]; 0.3162 µM): 0.462
increase in dead-cell fraction ([5]; 1 µM): 0.494
increase in dead-cell fraction ([6]; 0.001 µM): -0.0034
increase in dead-cell fraction ([6]; 0.003162 µM): -0.0042
increase in dead-cell fraction ([6]; 0.01 µM): 0.0065
increase in dead-cell fraction ([6]; 0.03162 µM): -0.0098
increase in dead-cell fraction ([6]; 0.1 µM): -0.0059
increase in dead-cell fraction ([6]; 0.3162 µM): -0.0074
increase in dead-cell fraction ([6]; 1 µM): -0.0071
increase in dead-cell fraction ([6]; 3.162 µM): -0.01
increase in dead-cell fraction ([6]; 10 µM): -0.0011
increase in dead-cell fraction ([7]; 0.0001 µM): -0.0001
increase in dead-cell fraction ([7]; 0.0003162 µM): -0.0124
increase in dead-cell fraction ([7]; 0.001 µM): -0.0067
increase in dead-cell fraction ([7]; 0.003162 µM): -0.0067
increase in dead-cell fraction ([7]; 0.01 µM): 0.0039
increase in dead-cell fraction ([7]; 0.03162 µM): 0.0402
increase in dead-cell fraction ([7]; 0.1 µM): 0.165
increase in dead-cell fraction ([7]; 0.3162 µM): 0.149
increase in dead-cell fraction ([7]; 1 µM): 0.313
increase in dead-cell fraction ([8]; 0.0001 µM): -0.0044
increase in dead-cell fraction ([8]; 0.0003162 µM): 0.0084
increase in dead-cell fraction ([8]; 0.001 µM): -0.004
increase in dead-cell fraction ([8]; 0.003162 µM): -0.0097
increase in dead-cell fraction ([8]; 0.01 µM): 0.0094
increase in dead-cell fraction ([8]; 0.03162 µM): 0.002
increase in dead-cell fraction ([8]; 0.1 µM): 0.0269
increase in dead-cell fraction ([8]; 0.3162 µM): 0.0941
increase in dead-cell fraction ([8]; 1 µM): 0.274
GR value ([9]; 0.0003162 µM): 0.963 GR
GR value ([9]; 0.001 µM): 1.02 GR
GR value ([9]; 0.003162 µM): 1.02 GR
GR value ([9]; 0.01 µM): 1.05 GR
GR value ([9]; 0.03162 µM): 1.02 GR
GR value ([9]; 0.1 µM): 1.01 GR
GR value ([9]; 0.3162 µM): 1.06 GR
GR value ([9]; 1 µM): 1.05 GR
GR value ([9]; 3.162 µM): 1.05 GR
GR value ([10]; 0.0001 µM): 1.02 GR
GR value ([10]; 0.0003162 µM): 1 GR
GR value ([10]; 0.001 µM): 0.926 GR
GR value ([10]; 0.003162 µM): 1.04 GR
GR value ([10]; 0.01 µM): 0.906 GR
GR value ([10]; 0.03162 µM): 0.636 GR
GR value ([10]; 0.1 µM): 0.082 GR
GR value ([10]; 0.3162 µM): -0.19 GR
GR value ([10]; 1 µM): -0.188 GR
GR value ([11]; 0.0001 µM): 1 GR
GR value ([11]; 0.0003162 µM): 1.07 GR
GR value ([11]; 0.001 µM): 1 GR
GR value ([11]; 0.003162 µM): 0.92 GR
GR value ([11]; 0.01 µM): 0.76 GR
GR value ([11]; 0.03162 µM): 0.375 GR
GR value ([11]; 0.1 µM): -0.131 GR
GR value ([11]; 0.3162 µM): -0.226 GR
GR value ([11]; 1 µM): -0.435 GR
GR value ([12]; 0.0001 µM): 0.989 GR
GR value ([12]; 0.0003162 µM): 0.962 GR
GR value ([12]; 0.001 µM): 0.929 GR
GR value ([12]; 0.003162 µM): 0.953 GR
GR value ([12]; 0.01 µM): 0.931 GR
GR value ([12]; 0.03162 µM): 0.898 GR
GR value ([12]; 0.1 µM): 0.662 GR
GR value ([12]; 0.3162 µM): 0.213 GR
GR value ([12]; 1 µM): -0.426 GR
